Results reported in US20060234987A1, “Neuroprotective benzo 1 3 oxathiol 2 ones” (priority 2003, published 2006).

Tests used:
[1] = system: SCG neurons; test: In vitro protection of SCG neurons from Taxol killing; type: cell-based, Sprague Dawley rats; conditions: Rattus norvegicus, Neuron; Taxol 50 ng/mL, 48 hours, MTS viability; read-out: IC50, rescue from Taxol killing of SCG neurons
Text: Taxol™ is regularly used in the treatment of breast and other cancers. Taxol™ binds to the cyto-skeletal protein tubulin, thereby inhibiting normal microtubular […] and inducing cellular apoptosis. Despite its potency as an anti-tumour agent, Taxol™ is also toxic to neurons, inducing dose limiting peripheral neuropathies. The addition of Taxol™ to cultured SCG neurons induces the degradation or loss of upwards of 80% of the neurons. The addition of selected compounds of Formula I to the cellular media, concurrently with Taxol™, protects upwards of 100% of the neurons, at drug concentrations ranging from 3 to 50 μM (see Example 63).
In Vitro Protection of SCG neurons from Taxol killing. SCG neurons were isolated from day 1 neonatal Sprague Dawley rats, plated at a cell density of 10,000 cells/well, and incubated in Biowhittaker Ultraculture containing 1% Penstrep, 1% L-glutamine, 0.7% ARAC, 3% rat serum, and NGF (50 ng/mL, Calomone Labs) at 37° C., under a 5% CO2 atmosphere. After 5 days the cells were treated with compound and Taxol™ (50 ng/mL). Viability of neurons was assessed 48 hours later using MTS (Promega) staining. Table 4 summarizes selected IC50 values from compounds tested using this protocol. Also, see FIG. 1 for compound protection against Taxol killing.

[2] = system: SCG neurons; test: Protection of SCG neurons from anti-NGF killing; type: cell-based, Sprague Dawley rats; conditions: Rattus norvegicus, Neuron, read-out: IC50, rescue from anti-NGF killing of cultured SCG neurons
Protocol: Neurotrophins are critical to the growth, development, and survival of small fiber neurons of the PNS. SCG neurons are neurons of the PNS that undergo apoptosis upon NGF withdrawal. In a typical experiment SCG neurons are cultured in the presence of NGF, which induces survival and neurite out-growth. After 5 days the NGF is removed by either the addition of anti-NGF polyclonal antibody (Sigma) or by repeated washings (4 times) with NGF free media, resulting in the apoptosis of up to 90% of the neurons after 48 hours, as measured by MTS staining. The addition of selected compounds of Formula I to the final cellular media provides upwards of 100% protection, at drug concentrations ranging from 10 to 50 μM (see Example 62).
Protection of SCG neurons from anti-NGF killing. SCG neurons were isolated from day 1 neonatal Sprague Dawley rats, plated at a cell density of 5,000 cells/well, and incubated in Biowhittaker Ultraculture containing 1% Penstrep, 1% L-glutamine, 0.7% ARAC, 3% rat serum, and NGF (50 ng/mL, Calomone Labs), at 37° C., under a 5% CO2 atmosphere. After 4 days the cells were treated with anti-NGF antibody (Sigma). At this time compound was added and the cells were maintained serum and NGF free for 48 hours, at which time viability of the neurons was assessed using Alamar Blue (Medicorp) staining. Table 3 summarizes selected IC50 values from compounds tested using this protocol.

[3] = Conversion of esters and carbamates to phenol in microsomal fractions; type: in vitro ADME; conditions: incubated with microsomal fractions, standard conditions
Protocol: The phenolic moiety observed in many of the compounds represented by Formula I may be converted to esters, carbamates, thiocarbamates and sulfonates. The Applicant has shown that both esters and carbamates are rapidly converted to the corresponding phenol when incubated in the presence of microsomal fractions using standard conditions (Cresteil, T., et al. Am. Soc. Pharm. Exper. Therapeutics, 2002, 30, 438-445). These microsomal fractions contain various active esterase and P450 oxidative enzymes. […] Esters and carbamates of this type allow for the preparation of various novel pro-drugs which display increased water solubility, stability, formulation, and pharmacokinetic profiles. The carbamates disclosed in U.S. Pat. No. 4,349,685 are limited to lower alkyl, substituted aryl, haloalkyl, carbalkoxyalkene or an alkyl carbonyloxyalkylene group. The preferred embodiments of this disclosure include esters and carbamates represented by Formula I, where the carbamate or ester moiety includes substituted lower alkyl, heteroaryl, substituted heteroaryl moieties which contain a basic nitrogen, capable of increasing the water solubility of said compound via an acid/base salt (typified by compounds 55 and 61).

[4] = anti-NGF antibody, 48 hours, Alamar Blue viability

SMILES	IC50 [1] [µM]	IC50 [2, 4] [µM]	IC50 ([2]; 48 h) [µM]	conversion to parent phenol in microsomal fractions [3]
O=c1oc2ccc(O)cc2s1 [Compound 1, 5-Hydroxybenzo[1,3]oxathiol-2-one]	25			
O=c1oc2c(Cl)cc(O)c(Cl)c2s1 [Compound 3, 4,7-Dichloro-5-hydroxybenzo[1,3]oxathiol-2-one]	10			
O=c1oc2c(Sc3cccc4ccccc34)cc(O)cc2s1 [Compound 22, 5-Hydroxy-7-((1-naphthyl)sulfanyl)benzo[1,3]oxathiol-2-one]	10	> 30		
COc1ccc(NC(=O)Oc2cc(Sc3ccc4ccccc4c3)c3oc(=O)sc3c2)cc1 [Compound 26, 5-(N-(4-methoxyphenyl)carbamoyloxy)-7-((2-naphthyl)sulfanyl)benzo[1,3]oxathiol-2-one]	7		16	
O=C(Oc1cc(-c2ccc(-c3ccccc3)cc2)c2oc(=O)sc2c1)c1cccnc1 [Compound 55, 5-(3-pyridylcarbonyloxy)-7-biphenylbenzo[1,3]oxathiol-2-one]	2	7		rapidly converted to their parent phenols
